This passage reports EC50 results from patent publication US20260374754A1, “N-((ISOQUINOLIN-6-YL)METHYL)-1H-PYRAZOLE-4-CARBOXAMIDE DERIVATIVES AS PLASMA KALLIKREIN INHIBITORS FOR THE TREATMENT OF HEREDITARY ANGIODEMA” (Takeda Pharmaceutical Company Limited, priority 2022, published 2026).

In the test the target is human activated kallikrein enzyme (Homo sapiens, UniProt P03952). The test can be described thus: Inhibition of human activated plasma kallikrein, fluorogenic PFR-AMC substrate, 500 pM enzyme format. The test is classed as biochemical. To be noted: 300 μM PFR-AMC, 30 min preincubation, 10 min room temperature, pH 7.5. In outline: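 500 pM activated kallikrein preincubated 30 min at room temperature with inhibitors in pH 7.5 Tris/EDTA/NaCl buffer with PEG-400 and Triton X-100. Reaction started with 300 μM PFR-AMC, run 10 min at room temperature; AMC fluorescence read at ex 380/em 460 nm.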
Sequence of human activated kallikrein enzyme (P03952 391-638 limits assumed): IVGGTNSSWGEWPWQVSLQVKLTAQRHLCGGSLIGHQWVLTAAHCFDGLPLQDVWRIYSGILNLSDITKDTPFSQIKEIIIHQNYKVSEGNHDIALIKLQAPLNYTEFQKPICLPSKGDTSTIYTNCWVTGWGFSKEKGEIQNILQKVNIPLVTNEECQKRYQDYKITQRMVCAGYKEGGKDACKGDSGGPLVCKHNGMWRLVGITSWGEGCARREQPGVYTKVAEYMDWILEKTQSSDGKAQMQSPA
Sequence of human activated kallikrein enzyme (P03952 20-390 partner limits assumed): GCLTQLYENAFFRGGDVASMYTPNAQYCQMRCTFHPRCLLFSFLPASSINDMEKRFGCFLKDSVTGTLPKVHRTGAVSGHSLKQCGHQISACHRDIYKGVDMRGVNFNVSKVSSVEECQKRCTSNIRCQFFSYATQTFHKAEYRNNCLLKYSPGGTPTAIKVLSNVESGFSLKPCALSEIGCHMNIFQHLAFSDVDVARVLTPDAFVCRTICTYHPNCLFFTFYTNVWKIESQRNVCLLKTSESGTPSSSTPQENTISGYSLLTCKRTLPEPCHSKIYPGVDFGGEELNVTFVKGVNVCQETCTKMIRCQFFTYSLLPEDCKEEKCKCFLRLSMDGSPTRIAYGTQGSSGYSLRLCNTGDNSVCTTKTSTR

[1] abbreviates: 500 pM activated kallikrein, read-out: Primary Dose Response Assay: Average EC50.

Like-named read-outs stand apart in the source and are kept apart here. Some results are limits rather than exact numbers.

With `Cc1cc(Cn2cc(C(=O)NCc3c(C)cc4c(N)nccc4c3C)cn2)cc(C)c1Cc1ccccn1` [Example 169, N-((1-amino-5,7-dimethylisoquinolin-6-yl)methyl)-1-(3,5-dimethyl-4-(pyridin-2-ylmethyl)benzyl)-1H-pyrazole-4-carboxamide], the EC50 (in general, the concentration giving half of the maximal effect) under setting [1] was under 1 nM. `Cc1c(CNC(=O)c2cnn(Cc3ccccc3)c2)c(C)c2ccnc(N)c2c1C` [Example 170, N-((1-amino-5,7,8-trimethylisoquinolin-6-yl)methyl)-1-benzyl-1H-pyrazole-4-carboxamide] showed an EC50 (Primary Dose Response Assay: Average EC50, 500 pM activated kallikrein) of over 1000 nM. On to `Cc1cc2c(N)nccc2c(C)c1CNC(=O)c1cnn(Cc2cn3cc(C4CC4)cc(Cc4nnco4)c3n2)c1` [Example 172, 1-((8-((1,3,4-oxadiazol-2-yl)methyl)-6-cyclopropylimidazo[1,2-a]pyridin-2-y1)methyl)-N-((1-amino-5,7-dimethylisoquinolin-6-y1)methyl)-1H-pyrazole-4-carboxamide], for which the EC50 under setting [1] is under 1 nM. Take `CCc1cc2c(N)nccc2c(C)c1CNC(=O)c1cnn(Cc2ccccc2)c1` [Example 173, N-((1-amino-7-ethyl-5-methylisoquinolin-6-yl)methyl)-1-benzyl-1H-pyrazole-4-carboxamide]: under setting [1], the EC50 is 10 to 100 nM.

Consider `Cc1c(CNC(=O)c2cnn(Cc3ccccc3)c2)c(C2CC2)cc2c(N)nccc12` [Example 174, N-((1-amino-7-cyclopropyl-5-methylisoquinolin-6-yl)methyl)-1-benzyl-1H-pyrazole-4-carboxamide], for which the EC50 under setting [1] lay in the range of 10 to 100 nM.

With `Cc1c(CNC(=O)c2cnn(Cc3ccccc3)c2)c(C2(C)CC2)cc2c(N)nccc12` [Example 175, N-((1-amino-5-methy1-7-(1-methylcyclopropyl)isoquinolin-6-y1)methyl)-1-benzyl-1H-pyrazole-4-carboxamide], the EC50 under setting [1] lay within 10 to 100 nM. Turning to `Cc1cc2c(N)nccc2c(C)c1CNC(=O)c1cnn(Cc2cn3cc(C4CC4(C)C)ccc3n2)c1` (centres unmarked) [Example 176, N-((1-amino-5,7-dimethylisoquinolin-6-yl)methyl)-1-((6-(2,2-dimethylcyclopropyl)imidazo[1,2-a]pyridin-2-yl)methyl)-1H-pyrazole-4-carboxamide], the EC50 under setting [1] is 1 to 10 nM.

`C/C=C\c1ccc2nc(Cn3ccc(C(=O)NCc4c(C)cc5c(N)nccc5c4C)n3)cn2c1` [Example 177, (Z)-N-((1-amino-5,7-dimethylisoquinolin-6-yl)methyl)-1-((6-(prop-1-en-1-yl)imidazo[1,2-a]pyridin-2-yl)methyl)-1H-pyrazole-3-carboxamide]: under setting [1], the EC50 was under 1 nM. With `Cc1cc2c(N)nccc2c(C)c1CNC(=O)c1cnn(Cc2cn3cc(C4CC4C)ccc3n2)c1` (centres unmarked) [Example 178, N-((1-amino-5,7-dimethylisoquinolin-6-yl)methyl)-1-((6-(2-methylcyclopropyl)imidazo[1,2-a]pyridin-2-yl)methyl)-1H-pyrazole-4-carboxamide], under setting [1], the EC50 was under 1 nM. On the same count and under the same terms, with `CC(C)=Cc1ccc2nc(Cn3cc(C(=O)NCc4c(C)cc5c(N)nccc5c4C)cn3)cn2c1` [Example 179, N-((1-amino-5,7-dimethylisoquinolin-6-yl)methyl)-1-((6-(2-methylprop-1-en-1-yl)imidazo[1,2-a]pyridin-2-y1)methyl)-1H-pyrazole-4-carboxamide] the figure was 1 to 10 nM.

Take `Cc1cc2c(N)nccc2c(C)c1CNC(=O)c1cnn(C(CN)c2ccccc2)c1` (centres unmarked) [Example 180, 1-(2-amino-1-phenylethyl)-N-((1-amino-5,7-dimethylisoquinolin-6-yl)methyl)-1H-pyrazole-4-carboxamide]: the EC50 under setting [1] lay within 100 to 1000 nM. On the same count and under the same terms, with `Cc1cc2c(N)nccc2c(C)c1CNC(=O)c1cnn(C(CNC(=O)OC(C)(C)C)c2ccccc2)c1` (centres unmarked) [Example 181, tert-butyl (2-(4-(((1-amino-5,7-dimethylisoquinolin-6-yl)methyl)carbamoyl)-1H-pyrazol-1-yl)-2-phenylethyl)carbamate] the figure was over 1000 nM; with `Cc1cc2c(N)nccc2c(C)c1CNC(=O)c1cn(Cc2ccc(CC(=O)N3CC4CC4C3)cc2)nc1C(F)(F)F` (centres unmarked) [Example 182, 1-(4-(2-(3-azabicyclo[3.1.0]hexan-3-y1)-2-oxoethyl)benzyl)-N-((1-amino-5,7-dimethylisoquinolin-6-yl)methyl)-3-(trifluoromethyl)-1H-pyrazole-4-carboxamide], under 1 nM. As for `Cc1cc2c(N)nccc2c(C)c1CNC(=O)c1ccnc(Cc2ccc(Cn3cccn3)cc2)c1` [Example 183], under setting [1], the EC50 is under 1 nM. On the same count and under the same terms, the figure for `Cc1cnn(Cc2ccc(Cn3cc(C(=O)NCc4c(C)cc5c(N)nccc5c4C)c(C(F)(F)F)n3)cc2)c1` [Example 184, N-((1-amino-5,7-dimethylisoquinolin-6-yl)methyl)-1-(4-((4-methyl-1H-pyrazol-1-yl)methyl)benzyl)-3-(trifluoromethyl)-1H-pyrazole-4-carboxamide] is under 1 nM. With `Cc1cc2c(N)nccc2c(C)c1CNC(=O)c1cn(Cc2ccc(Cn3cccn3)cc2)nc1C(F)(F)F` [Example 185, 1-(4-((1H-pyrazol-1-yl)methyl)benzyl)-N-((1-amino-5,7-dimethylisoquinolin-6-y1)methyl)-3-(trifluoromethyl)-1H-pyrazole-4-carboxamide], the EC50 under setting [1] was under 1 nM.

Regarding `COCc1nn(Cc2ccc(Cn3cccn3)cc2)cc1C(=O)NCc1c(C)cc2c(N)nccc2c1C` [Example 187, 1-(4-((1H-pyrazol-1-yl)methyl)benzyl)-N-((1-amino-5,7-dimethylisoquinolin-6-yl)methyl)-3-(methoxymethyl)-1H-pyrazole-4-carboxamide], the EC50 under setting [1] was under 1 nM. `COCc1c(C(=O)NCc2c(C)cc3c(N)nccc3c2C)cnn1Cc1ccc(Cn2cccn2)cc1` [Example 188, 1-(4-((1H-pyrazol-1-yl)methyl)benzyl)-N-((1-amino-5,7-dimethylisoquinolin-6-yl)methyl)-5-(methoxymethyl)-1H-pyrazole-4-carboxamide]: the EC50 under setting [1] is 10 to 100 nM.

`Cc1cc2c(N)nccc2c(C)c1CNC(=O)c1ccnc(C(=O)c2cn3cc(C4CC4)ccc3n2)c1` [Example 189, N-((1-amino-5,7-dimethylisoquinolin-6-y1)methyl)-2-(6-cyclopropylimidazo[1,2-a]pyridine-2-carbonyl)isonicotinamide]: the EC50 under setting [1] was in the range of 100 to 1000 nM. Take `Cc1cc2c(N)nccc2c(C)c1CNC(=O)c1nnc(Cc2cn3cc(C4CC4)ccc3n2)o1` [Example 190, N-((1-amino-5,7-dimethylisoquinolin-6-yl)methyl)-5-((6-cyclopropylimidazo[1,2-a]pyridin-2-yl)methyl)-1,3,4-oxadiazole-2-carboxamide]: under setting [1], the EC50 was under 1 nM.

For `Cc1c(CNC(=O)c2cnn(Cc3cn4cc(C5CC5)ccc4n3)c2)c(C)c2ccnc(N)c2c1C` [Example 191, N-((1-amino-5,7,8-trimethylisoquinolin-6-yl)methyl)-1-((6-cyclopropylimidazo[1,2-a]pyridin-2-yl)methy1)-1H-pyrazole-4-carboxamide], under setting [1], the EC50 is 10 to 100 nM.

For `Cc1cc2c(N)nccc2c(C)c1CNC(=O)c1cnn(Cc2ccc(N3CCCC3)nc2)c1C(F)(F)F` [Example 193, N-((1-amino-5,7-dimethylisoquinolin-6-yl)methyl)-1-((6-(pyrrolidin-1-y1)pyridin-3-yl)methyl)-5-(trifluoromethyl)-1H-pyrazole-4-carboxamide], the EC50 under setting [1] lay in the range of 100 to 1000 nM. Still for that read-out and setting: the figure for `Cc1cc2c(N)nccc2c(C)c1CNC(=O)c1cnn(Cc2cnc(-c3ccccc3)nc2)c1` [Example 195, N-((1-amino-5,7-dimethylisoquinolin-6-yl)methyl)-1-((2-phenylpyrimidin-5-yl)methyl)-1H-pyrazole-4-carboxamide] is 1 to 10 nM; for `Cc1cc2c(N)nccc2c(C)c1CNC(=O)c1cnn(Cc2ccc(Cc3cccn(CC(F)(F)F)c3=O)cc2)c1` [Example 196, N-((1-amino-5,7-dimethylisoquinolin-6-yl)methyl)-1-(4-((2-oxo-1-(2,2,2-trifluoroethyl)-1,2-dihydropyridin-3-yl)methyl)benzy1)-1H-pyrazole-4-carboxamide] it is 1 to 10 nM. On the same count and under the same terms, the figure for `Cc1cc2c(N)nccc2c(C)c1CNC(=O)c1ccnc(Cc2ccc3ncc(Cl)cc3c2)c1` [Example 197, N-((1-amino-5,7-dimethylisoquinolin-6-yl)methyl)-2-((3-chloroquinolin-6-yl)methyl)isonicotinamide] is under 1 nM; for `Cc1cc2c(N)nccc2c(C)c1CNC(=O)c1cnc(Cc2cn3cc(C4CC4)ccc3n2)s1` [Example 198, N-((1-amino-5,7-dimethylisoquinolin-6-y1)methyl)-2-((6-cyclopropylimidazo[1,2-a]pyridin-2-yl)methyl)thiazole-5-carboxamide] it is 1 to 10 nM. On to `Cc1cc2c(N)nccc2c(C)c1CNC(=O)c1cn(Cc2cn3cc(C4CC4)ccc3n2)nc1C(F)F` [Example 199, N-((1-amino-5,7-dimethylisoquinolin-6-y1)methyl)-1-((6-cyclopropylimidazo[1,2-a]pyridin-2-y1)methyl)-3-(difluoromethyl)-1H-pyrazole-4-carboxamide], for which the EC50 under setting [1] was under 1 nM. As to `Cc1cc2c(N)nccc2c(C)c1CNC(=O)c1cn(C(C)c2ccc3ncc(Cl)cc3c2)nn1` (centres unmarked) [Example 200, N-((1-amino-5,7-dimethylisoquinolin-6-yl)methyl)-1-(1-(3-chloroquinolin-6-yl)ethyl)-1H-1,2,3-triazole-4-carboxamide], under setting [1], the EC50 lay in the range of 1 to 10 nM. Still for that read-out and setting: with `Cc1cc2c(N)nccc2c(C)c1CNC(=O)c1cnn(Cc2cn3cc(C(F)(F)F)ccc3n2)c1` [Example 201, N-((1-amino-5,7-dimethylisoquinolin-6-yl)methyl)-1-((6-(trifluoromethyl)imidazo[1,2-a]pyridin-2-yl)methyl)-1H-pyrazole-4-carboxamide] the figure was under 1 nM.
